Tests used:
[1] = tested on: rats subjected to ischemic/reperfusion injury by middle cerebral artery (MCA) occlusion; test: Cerebral blood flow by laser Doppler flowmetry after single intraperitoneal bolus (Example 1); type: in vivo, Sprague-Dawley rats; details: bolus intraperitoneal delivery
Source text: Male Sprague-Dawley rats (280-320g; n=8) were used for cerebral ischemia and reperfusion, and subsequent monitoring of cerebral blood flow. Tat or δV1-1 peptides were synthesized and conjugated via a Cys S—S bond as described previously (Chen, et al., Proc. Natl. Acad. Sci. USA 25(20):11114-11119 (2001); Inagaki, et al., Circulation 11(108):2304-2307 (2003)). Rats were sacrificed by overdose of isoflurane immediately following procedure
(§1) Ischemia and reperfusion were induced in male Sprague-Dawley rats using an occluding intraluminal suture as described in Maier, et al., J. Neurosurg. 94(1):90-96 (2001). Briefly, an uncoated 30 mm long segment of 3-0 nylon monofilament suture with the tip rounded by a flame was inserted into the stump of the external carotid artery and advanced into the internal carotid artery 19-20 mm from the bifurcation to occlude the ostium of the middle cerebral artery (MCA). Following placement of the suture, the wound was closed and animals were placed back in cages for a period of two hours. Following this period, animals were reanestheized and the suture was withdrawn to allow reperfusion of the brain.
Immediately following reperfusion, the rats were placed in a stereotaxic frame, and a burr hole was drilled through the skull 1 mm posterior and 6 mm lateral to the bregma on the ipsilateral hemisphere corresponding to the ischemic territory. Cerebral blood flow (CBF) was measured via this burr hole using a laser Doppler probe controlled by a micromanipulator (Laserflo BPM403A laser-Doppler flowmeter, Vasamedic, St. Paul, Minn.). The display is digital only, collects eight data points per second, and was set to give a moving average of data every 0.1 sec. (Perez-Pinzon, et al., J. Neurolog. Sci. 153 (1):25-31 (1997); Borlongan, et al., Brain Res. 1010(1-2):108-116 (2004)). CBF readings began at 30 minutes from the onset of reperfusion. Following a period of 20-30 minutes to establish baseline CBF, a δPKC inhibitor, the δV1-1 peptide (which was conjugated to Tat for delivery), was injected by intraperitoneal bolus, and blood flow was monitored for an additional 20-30 minutes.

[2] = tested on: rats subjected to ischemic/reperfusion injury by middle cerebral artery (MCA) occlusion; test: Transmission electron microscopy of brain tissue, ischemic penumbra, after MCA occlusion (Example 3); type: in vivo, Sprague-Dawley rats; details: for number of vessels per field (patent microvessels): 120 min MCA occlusion, 4 hrs reperfusion, 0.2 mg/kg bolus intraperitoneal at onset of reperfusion, 1200x fields, n=4, FIG. 5
Experimental: Sprague-Dawley rats underwent 120 minutes MCA occlusion, followed by 4 hrs of reperfusion. Rats were treated with either TAT or δV1-1-TAT peptides at the onset of reperfusion by bolus intraperitoneal injection (0.2 mg/kg in 1 mL, n=4 per group). […] Following the reperfusion period, rats were heavily anesthetized using isoflurane, and underwent transcardial perfusion using 0.7% NaCl/PBS followed by 4% formaldehyde in 0.7% NaCl/PBS.
Brains were removed and kept at 4° C. overnight in 2% formaldehyde/2% glutaraldehyde in 0.1M sodium cacodylate buffer, pH 7.3, Brain sections (˜1 mm^3) were then dissected from the cortical surface, at ˜1 mm anterior/˜6 mm lateral to bregma on the ipsilateral cortex (corresponding to the area measured by laser Doppler flowmetry). Tissue was post-fixed in 1% osmium tetroxide for 1 hr, washed with water, and stained in 1% uranyl acetate solution. Tissue was dehydrated using an ethanol gradient followed by 100% propylene oxide, and infiltrated with Epon and Embed 812 medium, placed in molds, and polymerized overnight at 65° C. before slicing. Sections (75 and 90 nm) were picked up on formvar/Carbon coated Cu grids, stained for 15 seconds in 1:1 Super-saturated uranyl acetate (7.7%) in acetone followed by staining in 0.2% lead citrate for 3 to 4 minutes (all reagents from Electron Microscopy Sciences, PA).
To quantitate number of patent vessels, 10-15 non-overlapping fields (1200× magnification) were photographed from 2-3 slices taken from each animal. Vessels were identified and counted if lumen and endothelial lining was apparent; vessels were confirmed by scanning over these fields at higher magnification. Assessments of vessel count were performed by an observer blinded to treatment group. The number of vessels per field was then averaged for each group of animals (n=4 per group). Statistical differences between groups were analyzed using an unpaired t-test. Higher magnification images (5000-15000×) were taken to assess microvascular morphology.

[3] = tested on: rats subjected to ischemic/reperfusion injury; test: Cerebral blood flow after repeated intraperitoneal administrations (Example 2); type: in vivo
Source text: as §1
Immediately following reperfusion, the rats were placed in a stereotaxic frame, and a burr hole was drilled through the skull 1 mm posterior and 6 mm lateral to the bregma on the ipsilateral hemisphere corresponding to the ischemic territory. Cerebral blood flow (CBF) was measured via this burr hole using a laser Doppler probe controlled by a micromanipulator (Laserflo BPM403A laser-Doppler flowmeter, Vasamedic, St. Paul, Minn.). The display is digital only, collects eight data points per second, and was set to give a moving average of data every 0.1 sec. […] CBF readings began at 30 minutes from the onset of reperfusion. […]

[4] = rats subjected to ischemic/reperfusion injury (2 h MCA occlusion), within 30 minutes, FIG. 2
[5] = sham (non-stroked) rats, within 30 minutes of delivery, FIG. 1

| Sequence | cerebral blood flow (CBF) [1, 4] | cerebral blood flow (CBF) [1, 5] | number of vessels per field (patent microvessels) [2] [vessels/field] | microvascular structure (higher magnification TEM) ([2]; ischemic animals, 0.2 mg/kg at reperfusion only, FIGS. 4F, 4I, 4L) | desensitization to the inhibitor ([3]; ischemic/reperfusion rats treated multiple times) | cerebral blood flow (CBF) ([3]; ischemic/reperfusion rats, repeated intraperitoneal administrations, FIG. 3) |
| --- | --- | --- | --- | --- | --- | --- |
| SFNSYELGSL [δV1-1-TAT] | increased cerebral blood flow | no change in blood flow | 3.1±0.6 | significantly less damaged | did not become desensitized | further increased blood flow |
| YGRKKRRQRRR [TAT, reference compound] | no effect on CBF | no effect on CBF | 1.6±0.6 |  |  |  |

— patent US8492348B2, “Methods of increasing cerebral blood flow” (The Board of Trustees of the Leland Stanford Junior …, priority 2005, dated 2013)
